These results are taken from patent US5411740A (ALZA Corporation, priority 1994, dated 1995).

Like-named read-outs stand apart in the source and are kept apart here.

The conditions of series [1]: 25 mg/ml oxybutynin reservoir, 20 μm polybutadiene film, cited from earlier work.
Series [2] is classed as in vivo, human. How it is done: (§1) Addition time was approximately 45 minutes.
A short description of series [3]: clinical. Format: in vivo, human. The note with it: system worn for 24 hours. The procedure: Therapeutic blood levels from about 0.5 ng/ml to about 3.0 ng/ml can be obtained from administration rates in the range of 0.08 mg/hr to 0.5 mg/hr. […] Therapeutic blood levels can be achieved within approximately 1-5 hours, and peak blood concentrations are achieved at about 3 hours when the system is worn for 24 hours. […] The system application is easily adapted for shorter or longer duration treatments, but generally 24 hours is the nominal duration for treatment.

Series [4] in a line: clinical. The note with it: human, in vivo, topical or ocular; for concentration at 24 h: after 24 hours; for concentration at 12 h: after 12 hours. How it is done:
as §1
No in-line adhesive was present. […] There was a 3M acrylate in-line adhesive present.
The in vivo plasma levels of oxybutynin were measured for two body sites. A 10 cm^2 device was worn on the penis for 101/2 hours and two 10 cm^2 devices were worn on the inner thigh for 24 hours. A control sample was drawn before applying the systems.
The other subject achieved a plasma level of 0.7 ng/mL after 12 hours, and the plasma level was 0.8 ng/mL after 24 hours.

[5] abbreviates: plasma oxybutynin concentration, two 10 cm^2 systems on inner thigh.
Where [6] appears, read: plasma oxybutynin level, additional subject (the other), two 10 cm^2 systems on inner thigh.

For `CCN(CC)CC#CCOC(=O)C(O)(c1ccccc1)C1CCCCC1` (stereo not shown) [oxybutynin, 4-diethylamino-2-butynylphenylcyclohexylglycolate], in series [1] (49 cm^2 area), the “in vitro release rate” value is about 10 μg/cm^2 /hr. For the same compound, the “in vitro release over 24 hours” value in series [1] (over 24 hours through a 49 cm^2 area) is listed as “approximately 12 mg”. Also, the “Measured Drug Loss” value is on record as 5.8 mg/20 cm^2 /day in series [2] (subject 1, inner thigh); 8.6 mg/20 cm^2 /day in series [2] (subject 2, inner thigh); 6.7 mg/20 cm^2 /day in series [2] (subject 3, chest); 7.2 mg/20 cm^2 /day in series [2] (subject 4, abdomen); 19.2 mg/20 cm^2 /day in series [2] (subject 5, penis). For the same compound, the Tmax in “clinical [3]” (human, in vivo, topical or ocular, read-out: time of peak blood concentrations) is about 3 h. For the same compound, in the series “clinical [3]”, the “time to achieve therapeutic blood levels” value fell in the range of 1 to 5 h. In addition, the concentration at 9 h in “clinical [4]” (plasma oxybutynin concentration, additional subject (one), two 10 cm^2 systems on inner thigh, after 9 hours) was 2 ng/mL. Also, the concentration at 24 h in “clinical [4]” (plasma oxybutynin concentration, additional subject (one), two 10 cm^2 systems on inner thigh) amounted to 1.7 ng/mL; in the series “clinical [4]” (setting [5]), 1.1 ng/mL; in “clinical [4]” (setting [6]) it was 0.8 ng/mL. Further, the results for the concentration at 12 h in the series “clinical [4]” (setting [5]) and in “clinical [4]” (setting [6]) were 0.9 ng/mL and 0.7 ng/mL, respectively. This compound also had a concentration at 4 h in the series “clinical [4]” (plasma oxybutynin level, 10 cm^2 device on the penis, within 4 hours) of 2 ng/mL.
